Experiments:
[1] = tested on: gamma-globin mRNA in K562 cells; assay: Gamma-globin mRNA accumulation in K562 cells by quantitative RT-PCR; type: cell-based, human; conditions: K562 cells treated for 6 days, cytosine arabinoside 1 μM, bergapten 200 μM, angelicin 400 μM, control = 1
Procedure: (§1) The biological activity of angelicin was evaluated by examining the capacity of that compound to modulate the expression of genes for gamma-globin in the human cell line K562, which is capable of differentiating in the erythroid manner by expressing genes for gamma-globin if subjected to treatment with modifiers of the biological response that are suitable for the purpose (3, 18, 19).
(§2) The level of differentiation was evaluated by analyzing the positive reaction of the cells to benzidine (3). The production of haemoglobin was evaluated by electrophoresis on cellulose acetate and by colouring the gel with a solution based on benzidine/H2O2 (3). The expression of the genes encoding for gamma-globin was evaluated by quantitative RT-PCR (reverse transcriptase PCR) (3).

[2] = tested on: human cell line K562; assay: Erythroid differentiation of K562 cells (benzidine-positive cells); type: cell-based; conditions: for Erythroid differentiation (%) = percentage of K562 cells that react positively to benzidine: optimal concentration of each compound (cytosine arabinoside 1 μM, bergapten 200 μM, angelicin 400 μM), six experiments, control 3-4
Procedure: as §1, §2

[3] = tested on: human cell line K562; assay: Haemoglobin production in K562 cells (cellulose acetate electrophoresis, benzidine/H2O2 staining); type: cell-based; conditions: 400 μM angelicin for 6 days
Procedure: as §2

[4] = tested on: gamma-globin mRNA in human erythroid precursors; assay: Gamma-globin mRNA accumulation in human erythroid precursors isolated from peripheral blood (Fibach two-stage culture), quantitative RT-PCR; type: cell-based; conditions: for Gamma-globin mRNA, increase compared with untreated control erythroid precursors: human erythroid precursors, angelicin 500 μM, hydroxyurea 120 μM, control = 1, quantitative RT-PCR
Text: In order to check whether angelicin was also capable of stimulating the production of mRNA for gamma-globin in human erythroid precursors isolated from peripheral blood, the technique published by Fibach et al. (20, 21) was used. This technique provides for two stages: in the first stage, the cells isolated from peripheral blood of a subject who is healthy or suffering from a haemopoietic pathology, such as sickle cell anaemia or beta-thalassaemia, are sown in a culture medium to which 10% of conditioned medium derived from the vesicle carcinoma cell line 5637 has been added. The second stage consists in cultivating the isolated cells in a suitable culture medium, supplemented by the erythropoietin hormone, 30% bovine foetal serum, 2-mercaptoethanol, albumin, glutamine and desamethasone in order to permit the proliferation and maturing of stem cells of the erythroid type. In this stage the cells can be treated with potential HbF inducers.

SMILES	Gamma-globin mRNA, increase compared with untreated control K562 cells [1]	Erythroid differentiation (%) = percentage of K562 cells that react positively to benzidine [2]	percentage of K562 cells that react positively to benzidine ([2]; angelicin 400 μM, 6 days, control K562 cells 3-4%)	chief haemoglobin produced [3]	increase in the production of mRNA for gamma-globin compared with the same untreated cells ([4]; human erythroid precursors from peripheral blood treated with angelicin) [times]	Gamma-globin mRNA, increase compared with untreated control erythroid precursors [4]
O=c1ccc2ccc3occc3c2o1 [angelicin]	44.94	55-60%	55-60%	Hb Portland (alpha2gamma2)	20.53	20.53
COc1c2ccoc2cc2oc(=O)ccc12 [bergapten, 5-methoxypsoralen]	3.48	50-60%	–	–	–	–
Nc1ccn([C@@H]2O[C@H](CO)[C@@H](O)[C@@H]2O)c(=O)n1 [cytosine arabinoside, reference compound]	3.24	75-80%	–	–	–	–
NC(=O)NO [hydroxyurea, reference compound]	–	–	–	–	–	6.96

From patent publication US7572827B2, “Use of angelicin and of its structural analogues for the treatment of thalassemia” (Universita' Degli Studi Di Ferrara, priority 2002, dated 2009)
